This passage reports inhibition results from patent US20130150340A1, “6-(4-Hydroxy-phenyl)-1H-pyrazolo[3,4-b]pyridine-4-carboxylic acid amide derivatives as kinase inhibitors” (SANOFI, priority 2011, published 2013).

Broadly, the inhibition is the drop in the measured response relative to a control, in per cent.

In the assay the target is T1, human full-length recombinant PKC βII (Homo sapiens, UniProt P05771).
T1 construct: Active human full-length recombinant PKC βII; purchased Invitrogen GmbH, Darmstadt, Germany
T1 sequence (P05771 1-673 isoform P05771-2): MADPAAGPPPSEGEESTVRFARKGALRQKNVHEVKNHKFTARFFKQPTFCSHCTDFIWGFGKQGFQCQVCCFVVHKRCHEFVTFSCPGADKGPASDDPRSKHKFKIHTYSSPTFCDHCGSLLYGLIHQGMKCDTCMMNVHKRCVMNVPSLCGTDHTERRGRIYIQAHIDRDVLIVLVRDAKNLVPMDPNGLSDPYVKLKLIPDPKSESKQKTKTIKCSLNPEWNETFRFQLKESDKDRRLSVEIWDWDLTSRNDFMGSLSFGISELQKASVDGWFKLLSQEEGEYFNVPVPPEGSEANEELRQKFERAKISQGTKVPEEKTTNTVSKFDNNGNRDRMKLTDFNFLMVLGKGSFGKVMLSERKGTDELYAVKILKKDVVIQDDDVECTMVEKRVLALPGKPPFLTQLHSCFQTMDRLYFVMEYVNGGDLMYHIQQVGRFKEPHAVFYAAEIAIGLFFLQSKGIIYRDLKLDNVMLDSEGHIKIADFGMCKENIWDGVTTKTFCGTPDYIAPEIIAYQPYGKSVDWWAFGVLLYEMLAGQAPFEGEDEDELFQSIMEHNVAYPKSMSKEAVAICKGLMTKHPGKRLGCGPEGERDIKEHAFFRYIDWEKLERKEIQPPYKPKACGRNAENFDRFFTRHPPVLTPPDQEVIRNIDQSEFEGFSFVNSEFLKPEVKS
The experiment in a line: Determination of PKC βII inhibition (Caliper mobility-shift kinase assay). The class given is biochemical. To be noted: example compounds at a final concentration of 1.14 μM (±0.15 μM); 60 min incubation at 32° C. The procedure: Determination of PKC 3H Inhibition
PKC βII inhibition was determined according to the following protocol:
Active human full-length recombinant PKC βII and the peptide substrate, Fluorescein-RFARKGSLRQKNV, were purchased from Invitrogen GmbH, Darmstadt, Germany. Adenosine-5′-triphosphate (ATP), bovine serum albumine (BSA), dimethylsulphoxide (DMSO), 4-(2-hydroxyethyl)piperazine-1-ethanesulfonic acid (Hepes), Triton X-100, 1,2-Dioleoyl-sn-glycerol (DAG), L-α-Phosphatidyl-L-serine (PS), calcium chloride (CaCl2), and Pluronic F-68 were purchased from Sigma-Aldrich, Munich, Germany. Magnesium chloride, 1 M sodium hydroxide solution, 1M hydrochloric acid solution and EDTA were obtained from Merck Biosciences, Darmstadt, Germany.
Test compounds were diluted to three times the test concentration in buffer 1 (30 mM Hepes-NaOH, pH 7.4, 0.01% Pluronic F-68 and 3% (v/v) DMSO). The PKC βII enzyme was diluted to a concentration of 30 ng/ml in buffer 2 (30 mM Hepes-NaOH, pH 7.4, 15 mM MgCl2, 150 μM CaCl2, 150 μg/ml PS, 60 μg/ml DAG, and 0.045% (w/v) Triton X-100). The peptide substrate and ATP were diluted to concentrations of 3 μM and 120 μM, respectively, in buffer 2. Two μl of the compound solution were mixed with 2 μl of the diluted enzyme in a 384-well small volume microtiter plate (Greiner, Bio-One, Frickenhausen, Germany), and the kinase reaction was initiated by addition of 2 μl of the solution containing peptide substrate and ATP. After 60 min incubation at 32° C., the reaction was stopped by addition of 20 μl of a solution containing 130 mM Hepes-NaOH, pH 7.4, 0.0195% (v/v) Brij-35, 6.5 mM EDTA, 0.13% chip coating reagent 3 (Caliper Lifescience Inc, Hopkinton, Mass.) and 6.5% (v/v) DMSO. Phosphorylation of the substrate peptide was then detected on a Caliper 3000 instrument essentially as described by Pommereau et al (J. Biomol. Screening 2004, 9(5), […]), Separation conditions were as follows: Pressure −0.8 psi, upstream voltage −3000 V, downstream voltage −800 V. Positive controls (buffer 1 instead of compound) and negative controls (buffer 1 instead of compound and buffer 2 instead of kinase solution) were run in parallel on each plate. Fractional turnover (R) was determined as the height of the peak of the phosphorylated peptide product divided by the sum of the unphosphorylated substrate and phosphorylated product peak heights. Percent-inhibition values for the test compounds were determined using the formula
% Inhibition=100*(1−(Rcompound−Rnegative control)/(Rpositive control−Rnegative control).

Consider `CC1CCN(C2CCN(C(=O)c3cc(-c4ccc(O)cc4)nc4[nH]ncc34)C2)CC1` (centres unmarked) [Example 65, [6-(4-Hydroxy-phenyl)-1H-pyrazolo[3,4-b]pyridin-4-yl]-[3-(4-methyl-piperidin-1-yl)-pyrrolidin-1-yl]-methanone], for which the inhibition at 1.14 µM was 34%.

Turning to `NC1CC(NC(=O)c2cc(-c3ccc(O)cc3)nc3[nH]ncc23)C1` (centres unmarked) [Example 14, 6-(4-Hydroxy-phenyl)-1H-pyrazolo[3,4-b]pyridine-4-carboxylic acid (3-amino-cyclobutyl)-amide], the inhibition at 1.14 µM turned out to be 69%.

Take `O=C(c1cc(-c2ccc(O)cc2)nc2[nH]ncc12)N1CCC[C@H]1CN1CCCC1` [Example 54, [6-(4-Hydroxy-phenyl)-1H-pyrazolo[3,4-b]pyridin-4-yl]-((S)-2-pyrrolidin-1-ylmethyl-pyrrolidin-1-yl)-methanone]: the inhibition at 1.14 µM was determined as 20%.

`O=C(c1cc(-c2ccc(O)cc2)nc2[nH]ncc12)N1CC2CC1CN2` (centres unmarked) [Example 47, 2,5-Diaza-bicyclo[2.2.1]hept-2-yl-[6-(4-hydroxy-phenyl)-1H-pyrazolo[3,4-b]pyridin-4-yl]-methanone]: the inhibition at 1.14 µM worked out at 81%.

Regarding `O=C(NC1CCNC1)c1cc(-c2ccc(O)cc2)nc2[nH]ncc12` (centres unmarked) [Example 5, 6-(4-Hydroxy-phenyl)-1H-pyrazolo[3,4-b]pyridine-4-carboxylic acid pyrrolidin-3-ylamide], the inhibition at 1.14 µM is 85%.

Turning to `O=C(c1cc(-c2ccc(O)cc2)nc2[nH]ncc12)N1CCOC2(CCCNC2)C1` (centres unmarked) [Example 27, [6-(4-Hydroxy-phenyl)-1H-pyrazolo[3,4-b]pyridin-4-yl]-(1-oxa-4,8-diaza-spiro[5.5]undec-4-yl)-methanone], the inhibition at 1.14 µM worked out at 42%.

Consider `O=C(NC1CNC1)c1cc(-c2ccc(O)cc2)nc2[nH]ncc12` [Example 35, 6-(4-Hydroxy-phenyl)-1H-pyrazolo[3,4-b]pyridine-4-carboxylic acid azetidin-3-ylamide], for which the inhibition at 1.14 µM was 82%.

As to `NC1CCN(C(=O)c2cc(-c3ccc(O)cc3)nc3[nH]ncc23)C1` (centres unmarked) [Example 45, (3-Amino-pyrrolidin-1-yl)-[6-(4-hydroxy-phenyl)-1H-pyrazolo[3,4-b]pyridin-4-yl]-methanone], the inhibition at 1.14 µM is 50%.

Turning to `N[C@H]1CC[C@@H](CNC(=O)c2cc(-c3ccc(O)cc3)nc3[nH]ncc23)CC1` [Example 12, 6-(4-Hydroxy-phenyl)-1H-pyrazolo[3,4-b]pyridine-4-carboxylic acid (cis-4-amino-cyclohexylmethyl)-amide], the inhibition at 1.14 µM turned out to be 46%.

Regarding `CN(C)[C@H]1CCN(C(=O)c2cc(-c3ccc(O)cc3)nc3[nH]ncc23)C1` [Example 55, ((S)-3-Dimethylamino-pyrrolidin-1-yl)-[6-(4-hydroxy-phenyl)-1H-pyrazolo[3,4-b]pyridin-4-yl]-methanone], the inhibition at 1.14 µM was found to be 47%.

On to `N[C@H]1C[C@H](NC(=O)c2cc(-c3ccc(O)cc3)nc3[nH]ncc23)C1` [Example 30, 6-(4-Hydroxy-phenyl)-1H-pyrazolo[3,4-b]pyridine-4-carboxylic acid (trans-3-amino-cyclobutyl)-amide], for which the inhibition at 1.14 µM was found to be 68%.

For `O=C(NC1CCN(Cc2ccncc2)CC1)c1cc(-c2ccc(O)cc2)nc2[nH]ncc12` [Example 75, 6-(4-Hydroxy-phenyl)-1H-pyrazolo[3,4-b]pyridine-4-carboxylic acid (1-pyridin-4-ylmethyl-piperidin-4-yl)-amide], the inhibition at 1.14 µM is 45%.

Take `N[C@@H]1CCN(C(=O)c2cc(-c3ccc(O)cc3)nc3[nH]ncc23)C1` [Example 16, ((R)-3-Amino-pyrrolidin-1-yl)-[6-(4-hydroxy-phenyl)-1H-pyrazolo[3,4-b]-pyridin-4-yl]-methanone]: the inhibition at 1.14 µM came to 66%.

As to `CC(C)C1CN(C(=O)c2cc(-c3ccc(O)cc3F)nc3[nH]ncc23)C(C)(C)CN1` (centres unmarked) [Example 15, [6-(2-Fluoro-4-hydroxy-phenyl)-1H-pyrazolo[3,4-b]pyridin-4-yl]-(5-isopropyl-2,2-dimethyl-piperazin-1-yl)-methanone], the inhibition at 1.14 µM was determined as 94%.

Take `O=C1CC[C@@H](NC(=O)c2cc(-c3ccc(O)cc3)nc3[nH]ncc23)CN1` [Example 69, 6-(4-Hydroxy-phenyl)-1H-pyrazolo[3,4-b]pyridine-4-carboxylic acid ((R)-6-oxo-piperidin-3-yl)-amide]: the inhibition at 1.14 µM worked out at 59%.

Regarding `O=C(c1cc(-c2ccc(O)cc2)nc2[nH]ncc12)N1CCC2(CNCCO2)C1` (centres unmarked) [Example 31, [6-(4-Hydroxy-phenyl)-1H-pyrazolo[3,4-b]pyridin-4-yl]-(6-oxa-2,9-diaza-spiro[4.5]dec-2-yl)-methanone], the inhibition at 1.14 µM was 53%.

Take `CCN1CCCN(C(=O)c2cc(-c3ccc(O)cc3)nc3[nH]ncc23)CC1` [Example 64, (4-Ethyl-[1,4]diazepan-1-yl)-[6-(4-hydroxy-phenyl)-1H-pyrazolo[3,4-b]pyridin-4-yl]-methanone]: the inhibition at 1.14 µM was 45%.

`O=C(c1cc(-c2ccc(O)cc2)nc2[nH]ncc12)N1CC2(CCNCC2)C1` [Example 20, (2,7-Diaza-spiro[3.5]non-2-yl)-[6-(4-hydroxy-phenyl)-1H-pyrazolo[3,4-b]pyridin-4-yl]-methanone]: the inhibition at 1.14 µM was found to be 77%.

On to `CC(C)N1CCN(C(=O)c2cc(-c3ccc(O)cc3)nc3[nH]ncc23)CC1` [Example 56, [6-(4-Hydroxy-phenyl)-1H-pyrazolo[3,4-b]pyridin-4-yl]-(4-isopropyl-piperazin-1-yl)-methanone], for which the inhibition at 1.14 µM was 23%.

Turning to `N[C@H]1CC[C@H](NC(=O)c2cc(-c3ccc(O)cc3)nc3[nH]ncc23)CC1` [Example 9, 6-(4-Hydroxy-phenyl)-1H-pyrazolo[3,4-b]pyridine-4-carboxylic acid (trans-4-amino-cyclohexyl)-amide], the inhibition at 1.14 µM worked out at 82%.
